ChEMBL document CHEMBL1201861, “Genomics of Drug Sensitity in Cancer screening data, Wellcome Trust Sanger Institute”

Key:
Assay in all cases: cells
Type in all cases: functional, cell-based
Settings in all cases: Homo sapiens
[1] = test system: BL-41;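 also: growth inhibition of human BL-41 cells, read out with a cell viability assay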
Description: SANGER: Inhibition of human BL-41 cell growth in a cell viability assay.

[2] = test system: TALL-1;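 also: growth inhibition of cultured human TALL-1 cells, read out by a cell viability assay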
Description: SANGER: Inhibition of human TALL-1 cell growth in a cell viability assay.

[3] = test system: NCI-H1882;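 also: growth inhibition of the cell line, determined with a viability assay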
Description: SANGER: Inhibition of human NCI-H1882 cell growth in a cell viability assay.

[4] = test system: NCI-H64;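 also: growth inhibition of NCI-H64 cells, read out with a cell viability assay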
Description: SANGER: Inhibition of human NCI-H64 cell growth in a cell viability assay.

[5] = test system: NALM-6;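 also: growth inhibition of NALM-6 cells, read out with a cell viability assay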
Description: SANGER: Inhibition of human NALM-6 cell growth in a cell viability assay.

[6] = test system: NCI-H1417;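 also: human NCI-H1417 cells, growth inhibition determined with a cell viability readout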
Description: SANGER: Inhibition of human NCI-H1417 cell growth in a cell viability assay.

[7] = test system: GDM-1;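 also: cell viability readout used to measure growth inhibition of human GDM-1 cells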
Description: SANGER: Inhibition of human GDM-1 cell growth in a cell viability assay.

[8] = test system: THP-1;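 also: growth inhibition of THP-1 cells, read out via a cell viability assay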
Description: SANGER: Inhibition of human THP-1 cell growth in a cell viability assay.

[9] = test system: SCC-3;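 also: cell viability assay measuring inhibition of SCC-3 cell growth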
Description: SANGER: Inhibition of human SCC-3 cell growth in a cell viability assay.

[10] = test system: NB7;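 also: growth inhibition of NB7 cells, read out with a cell viability assay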
Description: SANGER: Inhibition of human NB7 cell growth in a cell viability assay.

[11] = test system: LC-1F;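 also: growth inhibition of human LC-1F cells, read out with a cell viability assay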
Description: SANGER: Inhibition of human LC-1F cell growth in a cell viability assay.

[12] = test system: LB647-SCLC;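 also: cell growth inhibition, read out by a viability assay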
Description: SANGER: Inhibition of human LB647-SCLC cell growth in a cell viability assay.

[13] = test system: NCI-H322M;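 also: cell viability assay measuring inhibition of growth of human NCI-H322M cells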
Description: SANGER: Inhibition of human NCI-H322M cell growth in a cell viability assay.

[14] = test system: LB996-RCC
Description: SANGER: Inhibition of human LB996-RCC cell growth in a cell viability assay.

[15] = test system: BC-3;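 also: cell viability assay measuring growth inhibition of human BC-3 cells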
Description: SANGER: Inhibition of human BC-3 cell growth in a cell viability assay.

[16] = test system: SIG-M5;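 also: cell viability assay read-out, measuring how strongly growth of cultured human SIG-M5 cells is inhibited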
Description: SANGER: Inhibition of human SIG-M5 cell growth in a cell viability assay.

[17] = test system: ECC4;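 also: growth inhibition of ECC4 cells, read out with a cell viability assay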
Description: SANGER: Inhibition of human ECC4 cell growth in a cell viability assay.

[18] = test system: D-423MG
Description: SANGER: Inhibition of human D-423MG cell growth in a cell viability assay.

[19] = test system: NY
Description: SANGER: Inhibition of human NY cell growth in a cell viability assay.

[20] = test system: NCI-H2087;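 also: growth inhibition determined with a cell viability readout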
Description: SANGER: Inhibition of human NCI-H2087 cell growth in a cell viability assay.

[21] = test system: GAMG;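 also: cell growth inhibition measured by a viability assay in the GAMG human cell line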
Description: SANGER: Inhibition of human GAMG cell growth in a cell viability assay.

[22] = test system: SK-MEL-30;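 also: growth inhibition of SK-MEL-30 cells, determined with a cell viability assay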
Description: SANGER: Inhibition of human SK-MEL-30 cell growth in a cell viability assay.

[23] = test system: RERF-LC-MS;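 also: growth inhibition of human RERF-LC-MS cells, read out by a cell viability assay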
Description: SANGER: Inhibition of human RERF-LC-MS cell growth in a cell viability assay.

[24] = test system: SKG-IIIa;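 also: cell growth inhibition, read out with a cell viability assay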
Description: SANGER: Inhibition of human SKG-IIIa cell growth in a cell viability assay.

[25] = test system: HuP-T3;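 also: HuP-T3 cell growth inhibition, read out with a cell viability assay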
Description: SANGER: Inhibition of human HuP-T3 cell growth in a cell viability assay.

[26] = test system: MDA-MB-175-VII
[27] = test system: C3A;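 also: growth inhibition of C3A human cells, quantified with a cell viability readout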
Description: SANGER: Inhibition of human C3A cell growth in a cell viability assay.

[28] = test system: PFSK-1;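 also: cell viability assay measuring how strongly compounds suppress growth of human PFSK-1 cells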
Description: SANGER: Inhibition of human PFSK-1 cell growth in a cell viability assay.

[29] = test system: D-566MG
[30] = test system: HTC-C3;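 also: inhibition of cell growth, read out with a cell viability assay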
Description: SANGER: Inhibition of human HTC-C3 cell growth in a cell viability assay.

[31] = test system: A 172;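 also: growth inhibition of A172 cells, measured with a cell viability readout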
Description: SANGER: Inhibition of human A172 cell growth in a cell viability assay.

[32] = test system: HN
Description: SANGER: Inhibition of human HN cell growth in a cell viability assay.

[33] = test system: DOK;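 also: cell viability assay read-out, values reflect inhibition of cell growth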
Description: SANGER: Inhibition of human DOK cell growth in a cell viability assay.

[34] = test system: Panc1005;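 also: growth inhibition of human PANC-10-05 cells, measured by a cell viability assay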
Description: SANGER: Inhibition of human PANC-10-05 cell growth in a cell viability assay.

[35] = test system: CAKI-1;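 also: growth inhibition of CAKI-1 cells, measured by a cell viability assay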
Description: SANGER: Inhibition of human CAKI-1 cell growth in a cell viability assay.

[36] = test system: AGS;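 also: growth inhibition of AGS cells, determined with a cell viability assay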
Description: SANGER: Inhibition of human AGS cell growth in a cell viability assay.

[37] = test system: KYSE-450;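 also: cell growth inhibition measured by a viability assay in human KYSE-450 cells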
Description: SANGER: Inhibition of human KYSE-450 cell growth in a cell viability assay.

[38] = test system: SK-OV-3;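 also: growth inhibition of SK-OV-3 human cells, read out with a cell viability assay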
Description: SANGER: Inhibition of human SK-OV-3 cell growth in a cell viability assay.

[39] = test system: NCI-H2291
Description: SANGER: Inhibition of human NCI-H2291 cell growth in a cell viability assay.

[40] = test system: OE19;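 also: growth inhibition of OE19 cells, measured through a cell viability read-out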
Description: SANGER: Inhibition of human OE19 cell growth in a cell viability assay.

[41] = test system: NCI-H1703;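 also: growth inhibition of NCI-H1703 cells, read out via a cell viability assay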
Description: SANGER: Inhibition of human NCI-H1703 cell growth in a cell viability assay.

[42] = test system: CAL-33;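 also: growth inhibition of CAL-33 cells, read out with a cell viability assay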
Description: SANGER: Inhibition of human CAL-33 cell growth in a cell viability assay.

[43] = test system: HT-1376
Description: SANGER: Inhibition of human HT-1376 cell growth in a cell viability assay.

[44] = test system: SK-N-AS;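 also: growth inhibition of human SK-N-AS cells, measured with a cell viability assay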
Description: SANGER: Inhibition of human SK-N-AS cell growth in a cell viability assay.

[45] = test system: CAL-85-1;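 also: growth inhibition of human CAL-85-1 cells, read out with a cell viability assay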
Description: SANGER: Inhibition of human CAL-85-1 cell growth in a cell viability assay.

[46] = test system: AN3-CA;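 also: growth inhibition of human AN3-CA cells measured by a cell viability assay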
Description: SANGER: Inhibition of human AN3-CA cell growth in a cell viability assay.

[47] = test system: NCI-H460;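 also: cell viability assay scoring growth inhibition of human NCI-H460 cells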
Description: SANGER: Inhibition of human NCI-H460 cell growth in a cell viability assay.

[48] = test system: CAL-62;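 also: growth inhibition of CAL-62 cells, read out with a cell viability assay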
Description: SANGER: Inhibition of human CAL-62 cell growth in a cell viability assay.

[49] = test system: M059J;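 also: growth inhibition of M059J cells, read out with a cell viability assay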
Description: SANGER: Inhibition of human M059J cell growth in a cell viability assay.

[50] = test system: KP-4;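 also: human KP-4 cells, with growth inhibition read out through a cell viability assay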
Description: SANGER: Inhibition of human KP-4 cell growth in a cell viability assay.

[51] = test system: HuO9;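 also: growth inhibition of HuO9 cells, read out with a cell viability assay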
Description: SANGER: Inhibition of human HuO9 cell growth in a cell viability assay.

[52] = test system: CaR-1;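 also: growth inhibition of human CaR-1 cancer cells, read out with a cell viability assay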
Description: SANGER: Inhibition of human CaR-1 cell growth in a cell viability assay.

[53] = test system: 769-P
Description: SANGER: Inhibition of human 769-P cell growth in a cell viability assay.

[54] = test system: PC-3;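 also: cell viability assay measuring growth inhibition of PC-3 cells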
Description: SANGER: Inhibition of human PC-3 cell growth in a cell viability assay.

[55] = test system: SW1417;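 also: growth inhibition of human SW1417 cells, read out with a cell viability assay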
Description: SANGER: Inhibition of human SW1417 cell growth in a cell viability assay.

[56] = test system: MG-63;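 also: growth inhibition of human MG-63 cells, read out with a cell viability assay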
Description: SANGER: Inhibition of human MG-63 cell growth in a cell viability assay.

[57] = test system: NCI-H2452;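 also: growth inhibition of NCI-H2452 cells, read out with a cell viability assay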
Description: SANGER: Inhibition of human NCI-H2452 cell growth in a cell viability assay.

[58] = test system: WM-115
Description: SANGER: Inhibition of human WM-115 cell growth in a cell viability assay.

[59] = test system: Hs-578T
Description: SANGER: Inhibition of human Hs-578-T cell growth in a cell viability assay.

[60] = test system: HT55;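 also: cell viability readout measuring growth inhibition of human HT55 cells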
Description: SANGER: Inhibition of human HT55 cell growth in a cell viability assay.

[61] = test system: BALL-1;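 also: growth inhibition of BALL-1 cells, read out with a cell viability assay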
Description: SANGER: Inhibition of human BALL-1 cell growth in a cell viability assay.

[62] = test system: NCI-H2347
Description: SANGER: Inhibition of human NCI-H2347 cell growth in a cell viability assay.

[63] = test system: SNU-449
Description: SANGER: Inhibition of human SNU-449 cell growth in a cell viability assay.

[64] = test system: HCC1569
Description: SANGER: Inhibition of human HCC1569 cell growth in a cell viability assay.

SMILES: CCNc1cc(N[C@H]2CC[C@@H](O)CC2)nc(Nc2ccc3c(ccn3Cc3ccccc3)c2)n1
- IC50 [1]: > 5120 nM
- IC50 [2]: > 5120 nM
- IC50 [3]: > 5120 nM
- IC50 [4]: > 5120 nM
- IC50 [5]: 4980 nM
- IC50 [6]: > 5120 nM
- IC50 [7]: > 5120 nM
- IC50 [8]: > 5120 nM
- IC50 [9]: > 5120 nM
- IC50 [10]: > 5120 nM
- IC50 [11]: > 5120 nM
- IC50 [12]: > 5120 nM
- IC50 [13]: > 5120 nM
- IC50 [14]: > 5120 nM
- IC50 [15]: > 5120 nM
- IC50 [16]: > 5120 nM
- IC50 [17]: > 5120 nM

SMILES: COc1cc(C)c(Sc2cnc(NC(=O)c3ccc(CNC(C)C(C)(C)C)cc3)s2)cc1C(=O)N1CCN(C(C)=O)CC1 (stereo unspecified)
- IC50 [1]: > 10200 nM
- IC50 [2]: > 10200 nM
- IC50 [3]: > 10200 nM
- IC50 [4]: > 10200 nM
- IC50 [5]: 10000 nM
- IC50 [6]: > 10200 nM
- IC50 [7]: > 10200 nM
- IC50 [8]: > 10200 nM
- IC50 [9]: > 10200 nM
- IC50 [10]: > 10200 nM
- IC50 [11]: > 10200 nM
- IC50 [12]: > 10200 nM
- IC50 [13]: > 10200 nM
- IC50 [14]: > 10200 nM
- IC50 [15]: > 10200 nM
- IC50 [16]: 8070 nM
- IC50 [17]: > 10200 nM

SMILES: Cc1ccc(NC(=O)c2cccc(C(C)(C)C#N)c2)cc1Nc1ccc2ncn(C)c(=O)c2c1
- IC50 [1]: > 4000 nM
- IC50 [2]: > 4000 nM
- IC50 [3]: > 4000 nM
- IC50 [4]: > 4000 nM
- IC50 [5]: > 4000 nM
- IC50 [6]: > 4000 nM
- IC50 [7]: 229 nM
- IC50 [8]: > 4000 nM
- IC50 [9]: > 4000 nM
- IC50 [10]: > 4000 nM
- IC50 [11]: 3300 nM
- IC50 [12]: > 4000 nM
- IC50 [13]: > 4000 nM
- IC50 [14]: > 4000 nM
- IC50 [15]: > 4000 nM
- IC50 [16]: 9.45 nM
- IC50 [17]: > 4000 nM

SMILES: Cc1n[nH]c2ccc(-c3cncc(OC[C@@H](N)Cc4c[nH]c5ccccc45)c3)cc12 [A-443654]
- IC50 [1]: 96.3 nM
- IC50 [2]: 242 nM
- IC50 [3]: 428 nM
- IC50 [4]: > 1020 nM
- IC50 [5]: 128 nM
- IC50 [6]: 584 nM
- IC50 [7]: > 1020 nM
- IC50 [8]: > 1020 nM
- IC50 [9]: 620 nM
- IC50 [10]: > 1020 nM
- IC50 [11]: 181 nM
- IC50 [12]: 224 nM
- IC50 [13]: > 1020 nM
- IC50 [14]: 122 nM
- IC50 [15]: 342 nM
- IC50 [16]: 130 nM
- IC50 [17]: > 1020 nM

SMILES: CC[C@@]1(O)C(=O)OCc2c1cc1n(c2=O)Cc2cc3ccccc3nc2-1 [CAMPTOTHECIN]
- IC50 [18]: 2.55 nM
- IC50 [19]: > 100 nM
- IC50 [20]: 5.07 nM
- IC50 [21]: 1.53 nM
- IC50 [22]: > 100 nM
- IC50 [23]: 22.9 nM
- IC50 [24]: 4.58 nM
- IC50 [25]: 36.4 nM
- IC50 [26]: 83 nM
- IC50 [27]: 56.9 nM
- IC50 [28]: 26 nM
- IC50 [29]: 0.132 nM
- IC50 [30]: 31.5 nM
- IC50 [31]: 12.8 nM
- IC50 [10]: 16.8 nM
- IC50 [32]: 1.4 nM
- IC50 [33]: 18.9 nM
- IC50 [34]: 19.7 nM
- IC50 [35]: 5.35 nM
- IC50 [36]: 16.1 nM
- IC50 [37]: 23.7 nM
- IC50 [38]: > 100 nM
- IC50 [39]: > 100 nM
- IC50 [40]: > 100 nM
- IC50 [41]: 6.51 nM
- IC50 [42]: 6 nM
- IC50 [43]: > 100 nM
- IC50 [44]: 5.38 nM
- IC50 [45]: > 100 nM
- IC50 [46]: 34 nM
- IC50 [47]: 24.1 nM
- IC50 [48]: 0.984 nM
- IC50 [49]: 4.1 nM
- IC50 [50]: 3.16 nM
- IC50 [51]: 2.88 nM
- IC50 [52]: 6.43 nM
- IC50 [53]: 25.3 nM
- IC50 [54]: 9.75 nM
- IC50 [55]: 52.7 nM
- IC50 [56]: 7.65 nM
- IC50 [57]: 90.9 nM

SMILES: Cc1nc(Nc2ncc(C(=O)Nc3c(C)cccc3Cl)s2)cc(N2CCN(CCO)CC2)n1 [DASATINIB]
- IC50 [1]: 291 nM
- IC50 [2]: > 1280 nM
- IC50 [3]: > 1280 nM
- IC50 [4]: > 1280 nM
- IC50 [5]: 193 nM
- IC50 [6]: > 1280 nM
- IC50 [7]: > 1280 nM
- IC50 [8]: > 1280 nM
- IC50 [9]: > 1280 nM
- IC50 [10]: > 1280 nM
- IC50 [11]: > 1280 nM
- IC50 [12]: > 1280 nM
- IC50 [13]: > 1280 nM
- IC50 [14]: 9.91 nM
- IC50 [15]: > 1280 nM
- IC50 [16]: > 1280 nM
- IC50 [17]: > 1280 nM

SMILES: CCn1c(-c2nonc2N)nc2cnc(Oc3cccc(NC(=O)c4ccc(OCCN5CCOCC5)cc4)c3)cc21 [GSK-269962A]
- IC50 [1]: > 2500 nM
- IC50 [2]: > 2500 nM
- IC50 [3]: > 2500 nM
- IC50 [4]: > 2500 nM
- IC50 [5]: 1560 nM
- IC50 [6]: > 2500 nM
- IC50 [7]: > 2500 nM
- IC50 [8]: > 2500 nM
- IC50 [9]: > 2500 nM
- IC50 [10]: > 2500 nM
- IC50 [11]: > 2500 nM
- IC50 [12]: > 2500 nM
- IC50 [13]: > 2500 nM
- IC50 [14]: > 2500 nM
- IC50 [15]: > 2500 nM
- IC50 [16]: > 2500 nM
- IC50 [17]: > 2500 nM

SMILES: CC(=O)c1c(C)c2cnc(Nc3ccc(N4CCNCC4)cn3)nc2n(C2CCCC2)c1=O [PALBOCICLIB]
- IC50 [18]: > 4000 nM
- IC50 [19]: > 4000 nM
- IC50 [20]: > 4000 nM
- IC50 [21]: 2590 nM
- IC50 [22]: > 4000 nM
- IC50 [23]: > 4000 nM
- IC50 [24]: > 4000 nM
- IC50 [58]: > 4000 nM
- IC50 [59]: 1260 nM
- IC50 [25]: > 4000 nM
- IC50 [26]: > 4000 nM
- IC50 [60]: > 4000 nM
- IC50 [27]: > 4000 nM
- IC50 [61]: > 4000 nM
- IC50 [28]: > 4000 nM
- IC50 [29]: > 4000 nM
- IC50 [62]: > 4000 nM
- IC50 [30]: 433 nM
- IC50 [63]: > 4000 nM
- IC50 [10]: 1990 nM
- IC50 [32]: 1540 nM
- IC50 [33]: > 4000 nM
- IC50 [34]: > 4000 nM
- IC50 [35]: > 4000 nM
- IC50 [36]: > 4000 nM
- IC50 [37]: > 4000 nM
- IC50 [14]: > 4000 nM
- IC50 [38]: > 4000 nM
- IC50 [39]: > 4000 nM
- IC50 [40]: > 4000 nM
- IC50 [42]: > 4000 nM
- IC50 [43]: > 4000 nM
- IC50 [44]: 388 nM
- IC50 [45]: > 4000 nM
- IC50 [46]: > 4000 nM
- IC50 [47]: 3670 nM
- IC50 [48]: 1610 nM
- IC50 [49]: > 4000 nM
- IC50 [51]: > 4000 nM
- IC50 [64]: > 4000 nM
- IC50 [52]: > 4000 nM
- IC50 [53]: > 4000 nM
- IC50 [54]: 1350 nM
- IC50 [55]: > 4000 nM
- IC50 [56]: 1620 nM
- IC50 [57]: > 4000 nM

SMILES: Cc1[nH]c(/C=C2\C(=O)Nc3ccc(S(=O)(=O)Cc4c(Cl)cccc4Cl)cc32)c(C)c1C(=O)N1CCC[C@@H]1CN1CCCC1 [PHA-665752]
- IC50 [1]: > 2000 nM
- IC50 [2]: > 2000 nM
- IC50 [3]: > 2000 nM
- IC50 [4]: > 2000 nM
- IC50 [5]: > 2000 nM
- IC50 [6]: > 2000 nM
- IC50 [7]: > 2000 nM
- IC50 [8]: > 2000 nM
- IC50 [9]: > 2000 nM
- IC50 [10]: > 2000 nM
- IC50 [11]: > 2000 nM
- IC50 [12]: > 2000 nM
- IC50 [13]: > 2000 nM
- IC50 [14]: > 2000 nM
- IC50 [15]: > 2000 nM
- IC50 [16]: > 2000 nM
- IC50 [17]: > 2000 nM
